Laboratory results published in US11968990B2, “Creamer comprising vegetable lipids and allulose” (CJ CHEILJEDANG CORPORATION, priority 2016, dated 2024).

Experiments:
[1] = Body weight of C57BL/6J mice fed creamer-containing high fat diet with allulose for 8 weeks; type: in vivo; details: for Body weight: HFD + creamer + 5 wt % allulose (PRA), mean ± SE, in g (unit assumed)
From the text: (§1) 16 C57BL/6J mice (male, 4-week-old) were purchased from the Jackson Laboratory (USA) and used. The mice were allowed to adapt to the breeding environment with the lab-chow diet (Purina Co., USA) for 4 weeks. Then, the mice were divided, by using the randomized block design, into a negative control group (PR: 8 mice), in which allulose was not fed, and an experimental group (PRA: 8 mice), in which allulose was fed, and the mice were fed with diet for 8 weeks.
For the diet of the negative control group, AIN-76 diet and HFD were applied, in which creamer [“Prima”, Dongsuh Foods Corporation, Korea; raw materials: 30-38 wt % of hydrogenated vegetable lipid (hydrogenated coconut oil, hydrogenated palm oil), starch syrup (including maltose), sodium caseinate, potassium phosphate dibasic, calcium phosphate tribasic] was used as the vegetable lipid. For the diet of the experimental group, 5 wt % of sugar among the components of the diet of the negative control group were replaced with allulose (crystal allulose, 98 wt % or higher of allulose based on dry solid content, CJ Cheiljedang) and used (Table 1). All animal experiments were conducted with the approval of the Ethical Commission for Animal Experimentation, Kyungpook National University (Approval No.: KNU-2013-18).
Pair feeding was performed based on the experimental group so as to feed the same level of iso-energetic diet, and thereby the effect of calorie reduction by allulose was excluded. The diet was refrigerated at 4° C. during the breeding period. The mice were bred in individual cages under constant temperature (25±2° C.), constant humidity (50±5%), and dark-light cycles at 12 hour intervals.
Dietary intake was measured at constant time every day, and body weight was measured at constant time every week.

[2] = Fecal lipid excretion in C57BL/6J mice fed creamer-containing high fat diet with allulose for 8 weeks; type: in vivo
From the text: as §1
For the diet of the negative control group, AIN-76 diet and HFD were applied, in which creamer [“Prima”, Dongsuh Foods Corporation, Korea; raw materials: 30-38 wt % of hydrogenated vegetable lipid (hydrogenated coconut oil, hydrogenated palm oil), starch syrup (including maltose), sodium caseinate, potassium phosphate dibasic, calcium phosphate tribasic] was used as the vegetable lipid. […]
Among them, 200 μL each were collected for the measurement of cholesterol and free fatty acids and dried again under nitrogen gas, and those for the measurement of neutral lipid and total cholesterol were dissolved in 500 μL of ethanol. […] At the time of quantification of total cholesterol and neutral lipid, 3 mM cholic acid (sodium salt) as an emulsifier and 0.5% Triton X-100 (for removal of turbidity that occurs at the time of color development) were mixed and used.
For the measurement of total cholesterol, 10 μL of the solution dissolved in ethanol (500 μL) and the emulsifier (690 μL) were mixed, and then 800 μL of a test solution (Asan Pharmaceutical kit) for measurement applying the enzyme method of Allain et al. (1974) was mixed. For quantification of both in forms of free cholesterol (FC) and cholesterol ester (CE), CE was converted to FC and fatty acid by cholesterol esterase. […] The obtained product and H2O2 as a substrate were reacted with peroxidase, phenol, and 4-amino-antipyrine to obtain a red coloring material, and then the absorbance was measured at 500 nm. The measured value was quantified by comparing with the cholesterol standard curve. […]

[3] = experimental group (PRA) compared to negative control group (PR)

SMILES: O=C(CO)C(O)C(O)C(O)CO [allulose, Allulose (D-psicose)]
- Body weight ([1]; 0 week of diet): 21.47 ± 0.50
- Body weight ([1]; 8th week of diet): 27.41 ± 0.48
- Inhibitory effect against weight gain ([1]; experimental group (PRA) vs negative control (PR), from 1st week of diet, 8 weeks): significantly inhibited
- Excretion of lipid as feces ([2]; allulose ingested along with the vegetable lipid in creamer): promoted
- Amount of free fatty acids in the feces vs negative control [2, 3]: significantly increased
- Amount of triglycerides in the feces vs negative control [2, 3]: significantly increased
